The record followed here is patent US20240180881A1, “METHODS FOR DECREASING RESISTANCE TO CHEMOTHERAPY” (National Institute of Immunology, priority 2022, published 2024).

Test [1] concerns the target T1, BLM-RAD54 interaction (BLM F2 and N-RAD54 F1) (Homo sapiens, UniProt Q92698).
T1 construct: expressed in transfected cells; host or cells: HEK293T
T1 sequence (Q92698 1-212): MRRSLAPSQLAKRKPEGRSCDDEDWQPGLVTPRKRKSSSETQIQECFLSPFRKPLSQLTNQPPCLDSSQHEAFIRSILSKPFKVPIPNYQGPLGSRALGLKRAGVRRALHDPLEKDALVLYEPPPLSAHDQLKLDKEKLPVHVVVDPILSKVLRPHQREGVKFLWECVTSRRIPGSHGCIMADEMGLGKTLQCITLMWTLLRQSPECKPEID
The test can be described thus: Renilla luciferase-based protein complementation assay (PCA). The test is classed as cell-based. As to conditions: disruption of BLM F2 / N-RAD54 F1 interaction, HEK293T cells, 1 nM to 100 μM; read-out: EC50. As for the experimental part:
Specifically, N-RAD54-F1, C-RAD54-F1, BLM-F1 and BLM-F2 were transfected in HEK293T. Forty-eight hours post-transfection, Renilla luciferase-based PCA were carried out with the indicated combination of the expressed proteins. The experiment was repeated three times. Mean±S.D.
Using the Renilla luciferase-based protein complementation assay described earlier, 1280 FDA/EMA approved small molecules present in Prestwick chemical library were screened for their ability to disrupt BLM-RAD54 interaction. Each of the small molecules was incubated with HEK293T cells expressing BLM-F2 and N-RAD54-F1. Compared to cells expressing only BLM-F2 and N-RAD54-F1, the decrease in Renilla luciferase intensity in presence of each small molecule was monitored. Percentage disruption of the interaction between BLM F2 and N-RAD54 F1 was plotted in form of heatmap. The disruption of the BLM-RAD54 interaction was determined by a decrease in the Renilla luciferase activity as compared to control untreated cells.
The percentage disruption of the interaction between BLM F2 and N-RAD54 F1 was plotted as a non-linear regression line. The data was from three independent experiments.
Renilla Luciferase (Rlu) based Protein complementation assay was carried out as described in (Stefan et al., 2007). For preliminary screening of the Prestwick Chemical Library (containing 1280 FDA/EMA approved small molecules), HEK293T cells were seeded in the 6-well plates a day prior to the transfection. Next day the cells were transfected by 2 μg each of pcDNA3.1 N-RAD54 F1, pcDNA3.1 C-RAD54 F1, pcDNA3.1 BLM F1, pcDNA3.1 BLM F2 plasmids (alone or in different combinations) using Lipofectamine 2000 (according to the manufacturer's protocol). 36 hours post-transfection, approximately […] cells were seeded in a 96-well plate and incubated at 37° C. for 2 hour with or without 10 μM of the 1280 small molecules present in the library. 10 μM of Coenleterazine h was added into each well and Rluc activity was monitored for the first 10 seconds in Varioskan Microplate Reader (Thermo Fisher Scientific). The validation screen was performed with 17 small molecules at 100 μM, 10 μM, 1 μM, 100 nM, 10 nM and 1 nM concentrations. The percentage reduction in the protein-protein interaction was then calculated as compared to the control wells (without any small molecule).

Test [2] relates to HCT116 CPT(R) cells stably expressing BLM (Delta 181-212) in BLM−/− background. Kind of test: Xenograft, cells expressing BLM (Delta 181-212). As to conditions: for tumour volume, chemosensitivity to camptothecin: CPT + compound. The class given is in vivo, NSG mice. As for the experimental part: Xenografts assays were carried out in NSG mice using HCT116 CPT(R) cells stably expressing BLM (Delta 181-212) in BLM−/− background. FIGS. 15A-15C show the tumour volumes post-injection of cells.
RNA (FIG. 15D) or protein (FIG. 15E) levels of the indicated MDR genes were determined by RT-qPCR or immunoblotting with the indicated antibodies.

A further test deals with T2, RAD54 (Homo sapiens, UniProt Q92698).
T2 construct: GST RAD54 (1-747) (WT); made in house; host or cells: E. coli BL-21 DE3
T2 sequence (Q92698 1-747): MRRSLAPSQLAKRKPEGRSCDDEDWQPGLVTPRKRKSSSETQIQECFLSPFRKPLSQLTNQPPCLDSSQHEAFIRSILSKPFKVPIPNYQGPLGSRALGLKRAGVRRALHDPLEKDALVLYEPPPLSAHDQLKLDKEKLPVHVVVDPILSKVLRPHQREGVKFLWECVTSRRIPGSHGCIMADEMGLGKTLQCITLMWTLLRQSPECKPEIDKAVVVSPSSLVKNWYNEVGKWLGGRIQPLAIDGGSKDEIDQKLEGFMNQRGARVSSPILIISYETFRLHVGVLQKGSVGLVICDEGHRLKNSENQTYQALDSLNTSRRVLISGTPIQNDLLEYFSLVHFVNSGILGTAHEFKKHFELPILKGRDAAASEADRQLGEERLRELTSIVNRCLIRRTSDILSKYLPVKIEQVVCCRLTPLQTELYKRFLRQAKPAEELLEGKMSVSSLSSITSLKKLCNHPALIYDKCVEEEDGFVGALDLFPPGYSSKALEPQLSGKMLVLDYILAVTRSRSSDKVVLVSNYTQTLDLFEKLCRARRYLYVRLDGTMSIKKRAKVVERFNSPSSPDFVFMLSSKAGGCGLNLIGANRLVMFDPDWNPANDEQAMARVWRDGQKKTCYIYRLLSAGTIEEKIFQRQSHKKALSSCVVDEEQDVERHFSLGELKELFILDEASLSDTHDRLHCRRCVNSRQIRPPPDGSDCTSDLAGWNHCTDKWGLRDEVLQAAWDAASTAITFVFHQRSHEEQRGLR
The test can be described thus: ATP binding assay. The class given is biochemical. As to conditions: 10 μM compound. As for the experimental part: The quantitation of the ATP binding assay was carried out using RAD54 WT, RAD54 WT+BLM_peptide, and RAD54 WT+SCM_peptide. The data is from three independent experiments. Mean±S.D.
The presence of the disruptors also led to a decrease in the ATP binding to RAD54.
A 20 μl reaction was set up with 120 nM of GST-RAD54 and 180 nM of either BLM_peptide or SCM_peptide or BLM (1-212) using 4 μl of 5×ATP binding assay buffer (100 mM Tris-Cl pH 7.5, 50 mM MgCl2, 10 mM MnCl2, 5 mM DTT) and 5 μCi of [γ^32P]dATP. […] Reactions were incubated at 30° C. for 20 minutes and were stopped with 10% TCA and samples were spotted on P81 phosphocellulose paper followed by washing of paper strips with 75 mM orthophosphoric acid. A minimum of 8 washes were given in 20 hrs of 1 hr each including a 12 hr wash. Following this, strips were dehydrated in ethanol for 10 min followed by liquid scintillation counting. Reactions without the substrate were spotted as control and the same process repeated.

For test [3], the target named is T3, RAD54 chromatin remodeling activity (Homo sapiens, UniProt Q92698).
T3 construct: GST RAD54 (1-747) (WT), GST BLM (1-1417) (WT), His RAD54 (1-747) (WT); made in house; host or cells: E. coli BL-21 DE3
T3 sequence (Q92698 1-747): T2 sequence (Q92698 1-747)
The test can be described thus: REA assay on chromatinized MRP2 array. As to conditions: 10 μM compound. The class given is biochemical.
Text: (§1) The data was from three independent experiments.
as §1
The data is from three independent experiments.

For orientation: EC50 means the concentration needed to bring the measured effect to its halfway point. Consider `CC(=O)Nc1nnc(S(N)(=O)=O)s1` [C3, Acetazolamide], for which the EC50 in test [1] stood at 4.2 ± 0.198 nM. The “tumour volume, chemosensitivity to camptothecin” value (“tumour volume, chemosensitivity” for short) in test [2] was “abrogates the functions”. Further, at RAD54, the “BLM dependent enhancement of ATP binding by RAD54” value is given as “decreased BLM dependent enhancement of the binding of ATP by RAD54”. In addition, the “BLM dependent enhancement of RAD54 chromatin remodeling, fraction uncut” value (“BLM dependent enhancement … fraction uncut” below) in test [3] is listed as “decreased the efficiency of BLM dependent enhancement of RAD54 chromatin remodelling activity”.

`OCCN(CCO)c1nc(N2CCCCC2)c2nc(N(CCO)CCO)nc(N3CCCCC3)c2n1` [C7, Dipyridamole]: the EC50 in test [1] came out at 6.16 ± 0.297 nM. The “tumour volume, chemosensitivity” value in test [2] is “abrogates the functions”. Besides, the “BLM dependent enhancement of ATP binding by RAD54” value at RAD54 is “decreased BLM dependent enhancement of the binding of ATP by RAD54”. The “BLM dependent enhancement … fraction uncut” value in test [3] is listed as “decreased the efficiency of BLM dependent enhancement of RAD54 chromatin remodelling activity”.

For the compound `CN1CCN(C2=Nc3ccccc3Oc3ccc(Cl)cc32)CC1.O=C(O)CCC(=O)O` [C17, Loxapine succinate], the EC50 in test [1] amounted to 22.9 ± 4.25 nM. In addition, in test [2], the “tumour volume, chemosensitivity” value is “abrogates the functions”. Besides, the “RNA and protein levels of the MDR genes in tumours” value in test [2] (without or with compound treatment) is “unaffected”. Also, the “BLM dependent enhancement of ATP binding by RAD54” value at RAD54 is “decreased BLM dependent enhancement of the binding of ATP by RAD54”. In addition, the “BLM dependent enhancement … fraction uncut” value in test [3] is given as “decreased the efficiency of BLM dependent enhancement of RAD54 chromatin remodelling activity”.
